PubChem BioAssay (NCI)
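Grown in 96-well plates, cells were treated for 48 hours with each compound at five concentrations. Insufficient inhibition: endpoint recorded as highest concentration tested. At the GI50, growth is halved. The concentration for full growth arrest is given as TGI.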

Columns and labels:
Test in all cases: NCI-60 cell line screen, 48 h
SF-295 CNS = system: SF-295 CNS
HOP-62 NSCLC = system: HOP-62 NSCLC
M14 melanoma = system: M14 melanoma
HT29 colon = system: HT29 colon
MALME-3M melanoma = system: MALME-3M melanoma
K-562 leukemia = system: K-562 leukemia
LOX IMVI melanoma = system: LOX IMVI melanoma
NCI/ADR-RES ovarian = system: NCI/ADR-RES ovarian
SK-MEL-2 melanoma = system: SK-MEL-2 melanoma
OVCAR-3 ovarian = system: OVCAR-3 ovarian
HL-60(TB) leukemia = system: HL-60(TB) leukemia
SNB-19 CNS = system: SNB-19 CNS
SK-MEL-5 melanoma = system: SK-MEL-5 melanoma
CCRF-CEM leukemia = system: CCRF-CEM leukemia
NCI-H460 lung = system: NCI-H460 lung
T-47D breast = system: T-47D breast
NCI-H226 lung = system: NCI-H226 lung
RXF 393 renal = system: RXF 393 renal
ACHN renal = system: ACHN renal
SNB-75 CNS = system: SNB-75 CNS
SN12C renal = system: SN12C renal
SK-OV-3 ovarian = system: SK-OV-3 ovarian
HCT-15 colon = system: HCT-15 colon
KM12 colon = system: KM12 colon
SF-539 CNS = system: SF-539 CNS
MOLT-4 leukemia = system: MOLT-4 leukemia
PC-3 prostate = system: PC-3 prostate
UACC-257 melanoma = system: UACC-257 melanoma
IGROV1 ovarian = system: IGROV1 ovarian
HOP-92 NSCLC = system: HOP-92 NSCLC
SR leukemia = system: SR leukemia
COLO 205 colon = system: COLO 205 colon
HCC-2998 colon = system: HCC-2998 colon
UACC-62 melanoma = system: UACC-62 melanoma
SF-268 CNS = system: SF-268 CNS
A498 renal = system: A498 renal
786-0 renal = system: 786-0 renal
EKVX NSCLC = system: EKVX NSCLC
SK-MEL-28 melanoma = system: SK-MEL-28 melanoma
MCF7 breast = system: MCF7 breast
MDA-MB-435 = system: MDA-MB-435
MDA-MB-231 breast = system: MDA-MB-231 breast
HS 578T breast = system: HS 578T breast
OVCAR-5 ovarian = system: OVCAR-5 ovarian
OVCAR-4 ovarian = system: OVCAR-4 ovarian
BT-549 breast = system: BT-549 breast
OVCAR-8 ovarian = system: OVCAR-8 ovarian
NCI-H522 lung = system: NCI-H522 lung
UO-31 renal = system: UO-31 renal
A549 NSCLC = system: A549 NSCLC
NCI-H23 lung = system: NCI-H23 lung
CAKI-1 renal = system: CAKI-1 renal
HCT-116 colon = system: HCT-116 colon
U251 CNS = system: U251 CNS
DU-145 prostate = system: DU-145 prostate
SW-620 colon = system: SW-620 colon
TK-10 renal = system: TK-10 renal

Compound: CCCNNC(=O)c1ccc(-c2ccc(NC(=O)CCCCCCC(=O)N[C@H](C(=O)N3C[C@H](O)C[C@H]3C(=O)N[C@@H](C)c3ccc(-c4scnc4C)cc3)C(C)(C)C)cc2)cc1
- GI50 (SF-295 CNS): 5.97 µM
- TGI (SF-295 CNS): > 100 µM
- GI50 (HOP-62 NSCLC): 2460 nM
- TGI (HOP-62 NSCLC): > 100 µM
- GI50 (M14 melanoma): 2860 nM
- TGI (M14 melanoma): > 100 µM
- GI50 (HT29 colon): 893 nM
- TGI (HT29 colon): > 100 µM
- GI50 (MALME-3M melanoma): 457 nM
- TGI (MALME-3M melanoma): > 20.3 µM
- GI50 (K-562 leukemia): 524 nM
- TGI (K-562 leukemia): > 100 µM
- GI50 (LOX IMVI melanoma): 38.7 nM
- TGI (LOX IMVI melanoma): 1080 nM
- GI50 (NCI/ADR-RES ovarian): > 100 µM
- TGI (NCI/ADR-RES ovarian): > 100 µM
- GI50 (SK-MEL-2 melanoma): 2700 nM
- TGI (SK-MEL-2 melanoma): > 100 µM
- GI50 (OVCAR-3 ovarian): 917 nM
- TGI (OVCAR-3 ovarian): 12.7 µM
- GI50 (HL-60(TB) leukemia): 394 nM
- TGI (HL-60(TB) leukemia): > 100 µM
- GI50 (SNB-19 CNS): 2620 nM
- TGI (SNB-19 CNS): > 47.6 µM
- GI50 (SK-MEL-5 melanoma): 2080 nM
- TGI (SK-MEL-5 melanoma): 8.47 µM
- GI50 (CCRF-CEM leukemia): 357 nM
- TGI (CCRF-CEM leukemia): > 100 µM
- GI50 (NCI-H460 lung): 2630 nM
- TGI (NCI-H460 lung): > 100 µM
- GI50 (T-47D breast): 345 nM
- TGI (T-47D breast): > 100 µM
- GI50 (NCI-H226 lung): 9.28 µM
- TGI (NCI-H226 lung): > 100 µM
- GI50 (RXF 393 renal): 465 nM
- TGI (RXF 393 renal): 2370 nM
- GI50 (ACHN renal): > 100 µM
- TGI (ACHN renal): > 100 µM
- GI50 (SNB-75 CNS): 1800 nM
- TGI (SNB-75 CNS): > 100 µM
- GI50 (SN12C renal): 4.21 µM
- TGI (SN12C renal): > 100 µM
- GI50 (SK-OV-3 ovarian): 5.66 µM
- TGI (SK-OV-3 ovarian): > 100 µM
- GI50 (HCT-15 colon): > 100 µM
- TGI (HCT-15 colon): > 100 µM
- GI50 (KM12 colon): 3.34 µM
- TGI (KM12 colon): > 100 µM
- GI50 (SF-539 CNS): 2050 nM
- TGI (SF-539 CNS): > 100 µM
- GI50 (MOLT-4 leukemia): 410 nM
- TGI (MOLT-4 leukemia): > 100 µM
- GI50 (PC-3 prostate): 1250 nM
- TGI (PC-3 prostate): > 100 µM
- GI50 (UACC-257 melanoma): 845 nM
- TGI (UACC-257 melanoma): > 100 µM
- GI50 (IGROV1 ovarian): 442 nM
- TGI (IGROV1 ovarian): > 100 µM
- GI50 (HOP-92 NSCLC): 258 nM
- TGI (HOP-92 NSCLC): 2140 nM
- GI50 (SR leukemia): 386 nM
- TGI (SR leukemia): > 100 µM
- GI50 (COLO 205 colon): 785 nM
- TGI (COLO 205 colon): 3.25 µM
- GI50 (HCC-2998 colon): 2050 nM
- TGI (HCC-2998 colon): 11.1 µM
- GI50 (UACC-62 melanoma): 1440 nM
- TGI (UACC-62 melanoma): 6.94 µM
- GI50 (SF-268 CNS): 3.63 µM
- TGI (SF-268 CNS): > 100 µM
- GI50 (A498 renal): 1410 nM
- TGI (A498 renal): 4.36 µM
- GI50 (786-0 renal): 5.02 µM
- TGI (786-0 renal): > 100 µM
- GI50 (EKVX NSCLC): > 36.6 µM
- TGI (EKVX NSCLC): > 100 µM
- GI50 (SK-MEL-28 melanoma): 599 nM
- TGI (SK-MEL-28 melanoma): > 100 µM
- GI50 (MCF7 breast): 407 nM
- TGI (MCF7 breast): > 100 µM
- GI50 (MDA-MB-435): 848 nM
- TGI (MDA-MB-435): > 39.3 µM
- GI50 (MDA-MB-231 breast): 1370 nM
- TGI (MDA-MB-231 breast): > 65.1 µM
- GI50 (HS 578T breast): 1910 nM
- TGI (HS 578T breast): > 100 µM
- GI50 (OVCAR-5 ovarian): 1880 nM
- TGI (OVCAR-5 ovarian): > 100 µM
- GI50 (OVCAR-4 ovarian): > 100 µM
- TGI (OVCAR-4 ovarian): > 100 µM
- GI50 (BT-549 breast): 5.29 µM
- TGI (BT-549 breast): > 100 µM
- GI50 (OVCAR-8 ovarian): 2980 nM
- TGI (OVCAR-8 ovarian): > 100 µM
- GI50 (NCI-H522 lung): 1120 nM
- TGI (NCI-H522 lung): > 100 µM
- GI50 (UO-31 renal): > 100 µM
- TGI (UO-31 renal): > 100 µM
- GI50 (A549 NSCLC): > 95.1 µM
- TGI (A549 NSCLC): > 100 µM
- GI50 (NCI-H23 lung): 2220 nM
- TGI (NCI-H23 lung): > 100 µM
- GI50 (CAKI-1 renal): 7.41 µM
- TGI (CAKI-1 renal): > 100 µM
- GI50 (HCT-116 colon): 410 nM
- TGI (HCT-116 colon): 5.28 µM
- GI50 (U251 CNS): 1030 nM
- TGI (U251 CNS): 8.46 µM
- GI50 (DU-145 prostate): 2010 nM
- TGI (DU-145 prostate): > 100 µM
- GI50 (SW-620 colon): 1280 nM
- TGI (SW-620 colon): 9.26 µM
- GI50 (TK-10 renal): 1800 nM
- TGI (TK-10 renal): > 100 µM
